# Tests used:
# [1] = Plasma stability analysis, mouse plasma; details: for half-life at 2 μM: plasma; for fold increase in half-life vs Cit-Val: 2 μM
# Method: Pooled frozen plasma was thawed in a water bath at 37° C. Plasma was centrifuged at 4000 rpm for 5 min and the clots were removed if any. The pH will be adjusted to 7.4±0.1 if required. 1 mM stock solution was prepared with DMSO. Propantheline (positive control) was prepared by making a 100 μM working solution by diluting 5 μL of the stock solution (10 mM) with 495 μL ultra pure water. 100 μM working solutions of test compounds were made up by diluting 10 μL of the stock solution (1 mM) with 90 μL DMSO. 98 μL of blank plasma was spiked with 2 μL of dosing solution (100 μM) to achieve 2 μM of the final concentration in duplicate and samples were incubated at 37° C. in a water bath. […] An aliquot of supernatant (150 μL) was transferred from each well before submitting for LC-MS/MS analysis.
# The % remaining test compound after incubation in plasma was calculated using following equation: Remaining=100×(PAR at appointed incubation time/PAR at T0 time)
# where PAR is the peak area ratio of analyte versus internal standard (IS).
# The half-life (T½) was calculated from a log linear plot of concentration versus time.
# Cathepsin B = Cathepsin B (Homo sapiens, UniProt P07858); assay: Cathepsin B (CatB) cleavage assay; assay type: biochemical; details: for % Parent remaining after incubation with CatB, 0 h / % Parent remaining after incubation with CatB, 1 h / % Parent remaining after incubation with CatB, 2 h / % Parent remaining after incubation with CatB, 4 h / % Parent remaining after incubation with CatB, 6 h / % Parent remaining after incubation with CatB, 24 h / half-life at 40 μM: BTCs; for half-life at 40 μM: read-out: CatB t1/2 (converted); for % Parent remaining after incubation with CatB, T = 1 h / % Parent remaining after incubation with CatB, T = 4 h / % Parent remaining after incubation with CatB, T = 24 h: norfloxacin linker compounds
# Method: 15 μL of test compound solution (2 mM in DMSO) was added to the incubation plate in duplicate. 30 μL of Cathepsin B stock solution (16 μM) was pre-activated with 1500 μL activation buffer for 10 min at room temperature. The Cathepsin B solution was diluted in 13.17 mL water, then 735 μL activatived enzyme mixture was added to the incubation plate. The mixture was incubated at 37° C. in a waterbath. […] The samples were mixed and centrifuged at 4000 rpm for 20 min. 50 μL of supernatant was taken into a new plate containing 150 μL ultra-pure water and the samples mixed thoroughly before submitting to LC-MS/MS analysis.
# in vivo = details: male, CD-1, mouse, plasma, intravenous
# Method: Male CD-1 mice were dosed with each Bicycle Conjugate formulated in 25 mM histidine HCl, 10% sucrose pH 7 via tail vein injection. Serial bleeding (about 80 μL blood/time point) was performed via submadibular or saphenous vein at each time point. All blood samples were immediately transferred into prechilled microcentrifuge tubes containing 2 μL K2-EDTA (0.5M) as anti-coagulant and placed on wet ice. Blood samples were immediately processed for plasma by centrifugation at approximately 4° C., 3000 g. The precipitant including internal standard (350 μL) was immediately added into the 35 μL plasma sample, mixed well and centrifuged at 3220 g, 4° C. for 15 minutes. The supernatant was transferred into pre-labeled polypropylene microcentrifuge tubes, and then quick-frozen over dry ice. The samples were stored at 70° C. or below as needed until analysis. Supernatant samples were mixed with 50 μL water, vortexed well and centrifuged at 3220 g, 4° C. for 15 minutes. A sample of the supernatant was injected for LC-MS/MS analysis using an Acquity UPLC with AB Sciex 6500+ Triple Quad MS in positive ion mode to determine the concentrations of Bicycle Conjugate and released payload. Plasma concentration versus time data were analyzed by non-compartmental approaches using the Phoenix WinNonlin 6.3 software program. C0, Cl, Vdss, T1/2, AUC(0-inf), MRT(0-last), MRT(0-inf) nd graphs of plasma concentration versus time profile were reported.
# in vitro [2] = details: rat, plasma, pH 7.4
# Method: (§1) Pooled frozen plasma was thawed in a water bath at 37° C. Plasma was centrifuged at 4000 rpm for 5 min and the clots were removed if any. The pH will be adjusted to 7.4±0.1 if required. 1 mM stock solution was prepared with DMSO. Propantheline (positive control) was prepared by making a 100 μM working solution by diluting 5 μL of the stock solution (10 mM) with 495 μL ultra pure water. 100 μM working solutions of test compounds were made up by diluting 10 μL of the stock solution (1 mM) with 90 μL DMSO. 98 μL of blank plasma was spiked with 2 μL of dosing solution (100 μM) to achieve 2 μM of the final concentration in duplicate and samples were incubated at 37° C. in a water bath. At each time point (0, 1, 2, 4, 6 and 24 hr), 400 μL of 200 ng/mL tolbutamide and labetalol in 100% MeOH was added and mixed thoroughly to precipitate proteins. Sample plates were centrifuged at 4,000 rpm for 15 min. An aliquot of supernatant (150 μL) was transferred from each well before submitting for LC-MS/MS analysis.
# (§2) The appointed incubation time points are T0 (0 hr), Tn (n=0, 1, 2, 4, 6, 24 hr). The half-life (T½) was calculated from a log linear plot of concentration versus time.
# (§3) When the % remaining value at the maximal incubation time, which was 24 hr in this study, was higher than 75%, it is considered to be within the acceptable experimental variation.
# in vitro [3] = details: human, plasma, pH 7.4
# Method: as §1, §2, §3
# in vitro [4] = details: mouse, plasma
# in vitro [5] = details: human, plasma
# in vitro [6] = details: rat, plasma, Plasma protein binding (% Unbound) Rat
# [7] = pH 7.4, Mouse plasma t1/2 (EDTA), BTCs, EDTA anticoagulant
# [8] = pH 7.4, Mouse plasma t1/2 (Herparin), BTCs, heparin anticoagulant
Structure (SMILES),"half-life at 2 μM [1, 7] [h]","% Parent remaining after incubation with CatB, 0 h (Cathepsin B) [%]","% Parent remaining after incubation with CatB, 1 h (Cathepsin B) [%]","% Parent remaining after incubation with CatB, 2 h (Cathepsin B) [%]","% Parent remaining after incubation with CatB, 4 h (Cathepsin B) [%]","% Parent remaining after incubation with CatB, 6 h (Cathepsin B) [%]","% Parent remaining after incubation with CatB, 24 h (Cathepsin B) [%]",half-life at 40 μM (Cathepsin B) [h],fraction unbound (in vitro [4]),"fold increase in half-life vs Cit-Val ([1]; mouse, pH 7.4) [fold]","half-life at 2 μM ([1]; mouse, pH 7.4) [h]","% Parent remaining after incubation with CatB, T = 1 h (Cathepsin B) [%]","% Parent remaining after incubation with CatB, T = 4 h (Cathepsin B) [%]","% Parent remaining after incubation with CatB, T = 24 h (Cathepsin B) [%]",other results
"CC[C@H](C)[C@@H]([C@@H](CC(=O)N1CCC[C@H]1[C@H](OC)[C@@H](C)C(=O)N[C@H](C)[C@@H](O)c1ccccc1)OC)N(C)C(=O)[C@@H](NC(=O)[C@H](C(C)C)N(C)C(=O)OCc1ccc(NC(=O)[C@H](CCN)NC(=O)[C@H](Cc2cccc3ccccc23)NC(=O)[C@H](CCC(=O)O)NC(=O)Cn2cc(CCC(=O)NCCC(=O)N(C)CC(=O)N(C)CC(=O)N(C)CC(=O)N(C)CC(=O)N(C)CC(=O)N(C)CC(=O)N(C)CC(=O)N(C)CC(=O)N(C)CC(=O)N(C)CC(=O)N[C@@H](C)C(=O)N[C@H]3CN(C)Cc4cc5cc(c4)CN(C)C[C@@H](C(N)=O)NC(=O)[C@H](C(C)(C)C)NC(=O)[C@H](CC(=O)O)NC(=O)[C@H](Cc4ccc(O)cc4)NC(=O)[C@H](Cc4ccccc4)NC(=O)[C@H](CC(=O)O)NC(=O)[C@H](CCC(=O)O)NC(=O)[C@H](CSC5)NC(=O)[C@@H](C)NC(=O)[C@H](Cc4cccc5ccccc45)NC(=O)[C@H](CCC(=O)O)NC(=O)[C@H](CC(N)=O)NC(=O)[C@@H](C)NC3=O)nn2)cc1)C(C)C [BCY10985, MMAE-PAB-(Dab-1Nal-Glu)-BCY3900]",> 57.8,100,103.62,94.8,107,92.2,86.82,> 57.8,0.048,,,,,,"half-life at 2 μM [1, 8]: > 57.8 h; C0 (in vivo): 26400 ng/mL; Vd (in vivo): 0.18 L/kg; clearance (in vivo): 1 mL/min/kg; half-life (in vivo): 2.48 h; half-life at 2 μM (in vitro [2]): > 57.8 h; half-life at 2 μM (in vitro [3]): > 57.8 h; fraction unbound (in vitro [5]): 0.234"
"CC[C@H](C)[C@@H]([C@@H](CC(=O)N1CCC[C@H]1[C@H](OC)[C@@H](C)C(=O)N[C@H](C)[C@@H](O)c1ccccc1)OC)N(C)C(=O)[C@@H](NC(=O)[C@H](C(C)C)N(C)C(=O)OCc1ccc(NC(=O)[C@H](CCCNC(N)=O)NC(=O)[C@@H](NC(=O)[C@H](CCC(=O)O)NC(=O)Cn2cc(CCC(=O)NCCC(=O)N(C)CC(=O)N(C)CC(=O)N(C)CC(=O)N(C)CC(=O)N(C)CC(=O)N(C)CC(=O)N(C)CC(=O)N(C)CC(=O)N(C)CC(=O)N(C)CC(=O)N[C@@H](C)C(=O)N[C@H]3CN(C)Cc4cc5cc(c4)CN(C)C[C@@H](C(N)=O)NC(=O)[C@H](C(C)(C)C)NC(=O)[C@H](CC(=O)O)NC(=O)[C@H](Cc4ccc(O)cc4)NC(=O)[C@H](Cc4ccccc4)NC(=O)[C@H](CC(=O)O)NC(=O)[C@H](CCC(=O)O)NC(=O)[C@H](CSC5)NC(=O)[C@@H](C)NC(=O)[C@H](Cc4cccc5ccccc45)NC(=O)[C@H](CCC(=O)O)NC(=O)[C@H](CC(N)=O)NC(=O)[C@@H](C)NC3=O)nn2)C(C)C)cc1)C(C)C [BCY10980, MMAE-PAB-(Cit-Val-Glu)-BCY3900]",> 57.8,100,0,0,0,0,0,< 0.2,0.187,,,,,,"half-life at 2 μM [1, 8]: > 57.8 h; C0 (in vivo): 40200 ng/mL; Vd (in vivo): 0.2 L/kg; clearance (in vivo): 4.8 mL/min/kg; half-life (in vivo): 0.64 h; half-life at 2 μM (in vitro [2]): > 57.8 h; half-life at 2 μM (in vitro [3]): 40 h"
CCn1cc(C(=O)O)c(=O)c2cc(F)c(N3CCN(C(=O)OCc4ccc(NC(=O)[C@H](CCN)NC(=O)[C@@H](NC(=O)CCCC(=O)N(C)C)C(C)C)cc4)CC3)cc21 [BCY9474],,,,,,,,,,10.8,4.3,0.3,0,0,
"CCn1cc(C(=O)O)c(=O)c2cc(F)c(N3CCN(C(=O)OCc4ccc(NC(=O)[C@H](CCCNC(N)=O)NC(=O)[C@@H](NC(=O)CCCC(=O)N(C)C)C(C)C)cc4)CC3)cc21 [BCY9422, reference compound]",,,,,,,,,,1.0,0.4,3,0,0,
"CC[C@H](C)[C@@H]([C@@H](CC(=O)N1CCC[C@H]1[C@H](OC)[C@@H](C)C(=O)N[C@H](C)[C@@H](O)c1ccccc1)OC)N(C)C(=O)[C@@H](NC(=O)[C@H](C(C)C)N(C)C(=O)OCc1ccc(NC(=O)[C@H](CN)NC(=O)[C@@H](NC(=O)[C@H](CCC(=O)O)NC(=O)Cn2cc(CCC(=O)NCCC(=O)N(C)CC(=O)N(C)CC(=O)N(C)CC(=O)N(C)CC(=O)N(C)CC(=O)N(C)CC(=O)N(C)CC(=O)N(C)CC(=O)N(C)CC(=O)N(C)CC(=O)N[C@@H](C)C(=O)N[C@H]3CN(C)Cc4cc5cc(c4)CN(C)C[C@@H](C(N)=O)NC(=O)[C@H](C(C)(C)C)NC(=O)[C@H](CC(=O)O)NC(=O)[C@H](Cc4ccc(O)cc4)NC(=O)[C@H](Cc4ccccc4)NC(=O)[C@H](CC(=O)O)NC(=O)[C@H](CCC(=O)O)NC(=O)[C@H](CSC5)NC(=O)[C@@H](C)NC(=O)[C@H](Cc4cccc5ccccc45)NC(=O)[C@H](CCC(=O)O)NC(=O)[C@H](CC(N)=O)NC(=O)[C@@H](C)NC3=O)nn2)C(C)C)cc1)C(C)C [BCY10982, MMAE-PAB-(Dap-Val-Glu)-BCY3900]",55.9,100,85.435,82.3,73.1,72.3,73.91,> 57.8,,,,,,,
"CC[C@H](C)[C@@H]([C@@H](CC(=O)N1CCC[C@H]1[C@H](OC)[C@@H](C)C(=O)N[C@H](C)[C@@H](O)c1ccccc1)OC)N(C)C(=O)[C@@H](NC(=O)[C@H](C(C)C)N(C)C(=O)OCc1ccc(NC(=O)[C@H](CCN)NC(=O)[C@H](Cc2ccc3ccccc3c2)NC(=O)[C@H](CCC(=O)O)NC(=O)Cn2cc(CCC(=O)NCCC(=O)N(C)CC(=O)N(C)CC(=O)N(C)CC(=O)N(C)CC(=O)N(C)CC(=O)N(C)CC(=O)N(C)CC(=O)N(C)CC(=O)N(C)CC(=O)N(C)CC(=O)N[C@@H](C)C(=O)N[C@H]3CN(C)Cc4cc5cc(c4)CN(C)C[C@@H](C(N)=O)NC(=O)[C@H](C(C)(C)C)NC(=O)[C@H](CC(=O)O)NC(=O)[C@H](Cc4ccc(O)cc4)NC(=O)[C@H](Cc4ccccc4)NC(=O)[C@H](CC(=O)O)NC(=O)[C@H](CCC(=O)O)NC(=O)[C@H](CSC5)NC(=O)[C@@H](C)NC(=O)[C@H](Cc4cccc5ccccc45)NC(=O)[C@H](CCC(=O)O)NC(=O)[C@H](CC(N)=O)NC(=O)[C@@H](C)NC3=O)nn2)cc1)C(C)C [BCY10986, MMAE-PAB-(Dab-2Nal-Glu)-BCY3900]",50.1,100,9.7346,0,0,0,0,0.3,0.071,,,,,,fraction unbound (in vitro [6]): 0.115
CCn1cc(C(=O)O)c(=O)c2cc(F)c(N3CCN(C(=O)OCc4ccc(NC(=O)[C@H](CN)NC(=O)[C@@H](NC(=O)CCCC(=O)N(C)C)C(C)C)cc4)CC3)cc21 [BCY10298],,,,,,,,,,6.5,2.6,92,63,6,

# Source: patent publication US12540161B2, “Linkers” (BicycleTx Limited, priority 2020, dated 2026)
